{"source": "patent US20120142028A1", "about": "“[…] […] ANTI-CANCER RESPONSE TO EPIDERMAL GROWTH FACTOR RECEPTOR KINASE INHIBITORS” (OSI Pharmaceuticals, LLC, priority 2009, published 2012)", "test_system": "patients who had had progression after standard chemotherapy for non-small-cell lung cancer", "experiment": "NCIC CTG BR.21 Phase 3 trial of TARCEVA vs placebo; survival and PFS by tumor E-cadherin/vimentin IHC status", "format": "in vivo, human", "settings": "for Hazard Ratio (H/L) (95% CI) / Median Survival / Median PFS: Erlotinib arm; for Hazard Ratio (95% CI): Erlotinib vs. Placebo; for Median PFS: progression free survival", "protocol": "The NCIC CTG. BR.21 study was a Phase 3 trial of TARCEVA® involving patients who had had progression after standard chemotherapy for non-small-cell lung cancer (i.e. 2nd and 3rd line NSCLC; Shepherd F A, et al. N Engl. J. Med 2005; 353:123-132.). Patients were randomly assigned in a 2:1 ratio to receive 150 mg of TARCEVA® (erlotinib HCl) daily or placebo. The primary end point was overall survival. Progression free survival and response were secondary end points. Separate written consent was obtained for optional tissue banking and correlative studies.\nBecause the BR21 trial is one of the few TARCEVA® clinical trials that includes a large number of patients and an untreated placebo group, it is optimally designed to evaluate the predictive and prognostic potential of biomarkers. As such, the potential of vimentin and E-cadherin protein expression to serve as a predictive biomarker for overall survival and […] was assessed using remaining tumor samples from the BR21 study. IHC analysis of tumor tissue samples received from NCIC was used to determine E-Cadherin and vimentin protein expression. Sensitivity analyses were performed to determine optimal cut points for E-Cadherin and vimentin staining for classification of E-Cadherin and vimentin as “High” or “Low” for use as prognostic and/or predictive markers for survival and progression-free survival. Further analyses were performed to evaluate possible correlations of biomarker status with clinical outcomes of survival, progression-free survival, response and disease control.\nStained slides were scored by an experienced pathologist. Slides were first evaluated for quality of tissue and quality of staining Acceptable slides were then evaluated, with the pathologist generating an ‘H-1-score’ based on a subjective interpretation of the staining intensity of the chromagen labeled antibody. Four intensity levels were used in scoring the stained sections: 0 for no staining, +1 for weak or minimal staining, +2 for moderate staining, and +3 for strong staining. The relative percentage of total target cells expressing an intensity level is recorded as data.\nTreatment groups as randomized (ITT population) were analyzed using all patients with evaluable tissue. Disease progression as assessed by the investigator was used for PFS (Progression Free Survival) analysis. Potential predictive benefit of E-Cadherin or vimentin expression was assessed by comparing trends in the hazard ratios. No treatments by biomarker interaction tests were performed. Three Scoring Methods were used for E-Cadherin and Vimentin: • 1. % Any Staining of tumor cells • 2. % of tumor cell Staining of Intensity +2 or +3 • 3. Composite Score Example: A sample read as 5% unstained, 35% staining of intensity +1, 45% staining of intensity +2, and 15% staining of intensity +3, would be scored as follows: • 95% any staining • 60% staining of intensity +2 or +3 • 0(5)+1(35)+2(45)+3(15)=Composite Score of 170 Overall survival is defined as the time from the study treatment start date to the date of death. If the patient receives the study treatment but the patient is still alive or a death date is unavailable, overall survival is calculated as the difference between the study treatment start date and the last date the patient was known to be alive. […] Progression free survival (PFS) is defined as the time from the study treatment start date to the documentation date of disease progression or the death date. As with overall survival, if no progression/death date is available, the PFS is calculated as the time from the study treatment start date to the last documented tumor assessment date, and is noted to be “censored”.\nTable 6 illustrates the numbers of patients in each treatment arm who were E-Cadherin high vs. low, and vimentin high vs. low for the subset of patients for whom E-Cadherin and vimentin results were available (N=95). P-values are determined from univariate Kaplan-Meier analyses. […]", "key": {"[1]": {"settings": "overall survival, E-Cadherin High"}, "[2]": {"settings": "overall survival, E-Cadherin Low"}, "[3]": {"settings": "overall survival, E-Cadherin/Vimentin High/High"}, "[4]": {"settings": "overall survival, E-Cadherin/Vimentin High/Low"}, "[5]": {"settings": "overall survival, E-Cadherin/Vimentin Low/High"}, "[6]": {"settings": "overall survival, E-Cadherin/Vimentin Low/Low"}, "[7]": {"settings": "overall survival, Patients with Known E-Cadherin Results"}, "[8]": {"settings": "overall survival, Patients with Known Vimentin Results"}, "[9]": {"settings": "overall survival, Vimentin High"}}, "note": "Values joined by “and” are separate entries in the source; they are usually repeats but may differ in a detail not shown here. Equal entries are not always repeated. “Also recorded” adds a separate entry of the source.", "data": [{"smiles": "C#Cc1cccc(Nc2ncnc3cc(OCCOC)c(OCCOC)cc23)c1", "note": "[Erlotinib, [6,7-bis(2-methoxyethoxy)-4-quinazolin-4-yl]-(3-ethynylphenyl)amine]", "values": [{"measurement": "Kaplan-Meier overall survival, Erlotinib arm compared to Placebo arm", "setting": "E-Cadherin high subset (FIG. 3)", "value": "more favorable"}, {"measurement": "Kaplan-Meier progression free survival, Erlotinib arm compared to Placebo arm", "setting": "E-Cadherin high subset (FIG. 4)", "value": "more favorable"}, {"measurement": "Kaplan-Meier overall survival, Erlotinib arm compared to Placebo arm", "setting": "E-Cadherin low subset (FIG. 3)", "value": "switched in direction but smaller in magnitude"}, {"measurement": "Kaplan-Meier progression free survival, Erlotinib arm compared to Placebo arm", "setting": "E-Cadherin low subset (FIG. 4)", "value": "switched in direction but smaller in magnitude"}, {"measurement": "Kaplan-Meier overall survival, E-Cadherin high subset compared to E-Cadherin low subset", "setting": "Erlotinib arm (FIG. 3)", "value": "more favorable"}, {"measurement": "Kaplan-Meier progression free survival, E-Cadherin high subset compared to E-Cadherin low subset", "setting": "Erlotinib arm (FIG. 4)", "value": "more favorable"}, {"measurement": "Kaplan-Meier overall survival, vimentin high subset compared to vimentin low subset", "setting": "Erlotinib arm (FIG. 5)", "value": "more favorable; also recorded: longer"}, {"measurement": "Kaplan-Meier progression free survival, vimentin high subset compared to vimentin low subset", "setting": "Erlotinib arm (FIG. 6)", "value": "more favorable; also recorded: longer"}, {"measurement": "Hazard Ratio (H/L) (95% CI)", "setting": "PFS, E-Cadherin High vs. E-Cadherin Low (cut-point 40% staining of intensity +2 or +3)", "value": "0.571 and 0.57"}, {"measurement": "Hazard Ratio (H/L) (95% CI)", "setting": "PFS, Vimentin High vs. Vimentin Low", "value": 0.43}, {"measurement": "Hazard Ratio (95% CI)", "setting": "PFS, All Patients", "value": 0.64}, {"measurement": "Hazard Ratio (95% CI)", "setting": "PFS, E-Cadherin High", "value": 0.52}, {"measurement": "Hazard Ratio (95% CI)", "setting": "PFS, E-Cadherin Low", "value": 1.18}, {"measurement": "Hazard Ratio (95% CI)", "setting": "PFS, E-Cadherin/Vimentin High/High", "value": 0.235}, {"measurement": "Hazard Ratio (95% CI)", "setting": "PFS, E-Cadherin/Vimentin High/Low", "value": 0.73}, {"measurement": "Hazard Ratio (95% CI)", "setting": "PFS, E-Cadherin/Vimentin Low/High", "value": 0.24}, {"measurement": "Hazard Ratio (95% CI)", "setting": "PFS, E-Cadherin/Vimentin Low/Low", "value": 2.75}, {"measurement": "Hazard Ratio (95% CI)", "setting": "PFS, Patients with Known E-Cadherin Results", "value": 0.72}, {"measurement": "Hazard Ratio (95% CI)", "setting": "PFS, Patients with Known Vimentin Results", "value": 0.72}, {"measurement": "Hazard Ratio (95% CI)", "setting": "PFS, Vimentin High", "value": 0.28}, {"measurement": "Hazard Ratio (95% CI)", "setting": "PFS, Vimentin Low", "value": 1.11}, {"measurement": "Median Survival", "setting": "overall survival, All Patients", "value": 6.67, "unit": "Months"}, {"measurement": "Median Survival", "setting": "[1]", "value": 11.3, "unit": "Months"}, {"measurement": "Hazard Ratio (H/L) (95% CI)", "setting": "overall survival, E-Cadherin High vs. E-Cadherin Low (cut-point 40% staining of intensity +2 or +3)", "value": "0.682 and 0.68"}, {"measurement": "Median Survival", "setting": "[2]", "value": 4.86, "unit": "Months"}, {"measurement": "Median Survival", "setting": "[3]", "value": 10.38, "unit": "Months"}, {"measurement": "Median Survival", "setting": "[4]", "value": 12.06, "unit": "Months"}, {"measurement": "Median Survival", "setting": "[5]", "value": 10.7, "unit": "Months"}, {"measurement": "Median Survival", "setting": "[6]", "value": 4.81, "unit": "Months"}, {"measurement": "Median Survival", "setting": "[7]", "value": 8.44, "unit": "Months"}, {"measurement": "Median Survival", "setting": "[8]", "value": 8.44, "unit": "Months"}, {"measurement": "Median Survival", "setting": "[9]", "value": 10.55, "unit": "Months"}, {"measurement": "Hazard Ratio (H/L) (95% CI)", "setting": "overall survival, Vimentin High vs. Vimentin Low", "value": 0.65}, {"measurement": "Median Survival", "setting": "overall survival, Vimentin Low", "value": 6.11, "unit": "Months"}, {"measurement": "Hazard Ratio (95% CI)", "setting": "overall survival, All Patients", "value": 0.76}, {"measurement": "Hazard Ratio (95% CI)", "setting": "[1]", "value": 0.47}, {"measurement": "Hazard Ratio (95% CI)", "setting": "[2]", "value": 1.12}, {"measurement": "Hazard Ratio (95% CI)", "setting": "[3]", "value": 0.31}, {"measurement": "Hazard Ratio (95% CI)", "setting": "[4]", "value": 0.57}, {"measurement": "Hazard Ratio (95% CI)", "setting": "[5]", "value": 0.26}, {"measurement": "Hazard Ratio (95% CI)", "setting": "[6]", "value": 2.44}, {"measurement": "Hazard Ratio (95% CI)", "setting": "[7]", "value": 0.69}, {"measurement": "Hazard Ratio (95% CI)", "setting": "[8]", "value": 0.69}, {"measurement": "Hazard Ratio (95% CI)", "setting": "[9]", "value": 0.26}, {"measurement": "Hazard Ratio (95% CI)", "setting": "overall survival, Vimentin Low", "value": 0.99}, {"measurement": "Median PFS", "setting": "All Patients", "value": 2.23, "unit": "Months"}, {"measurement": "Median PFS", "setting": "E-Cadherin High", "value": 3.68, "unit": "Months"}, {"measurement": "Median PFS", "setting": "E-Cadherin Low", "value": 1.97, "unit": "Months"}, {"measurement": "Median PFS", "setting": "E-Cadherin/Vimentin High/High", "value": 8.02, "unit": "Months"}, {"measurement": "Median PFS", "setting": "E-Cadherin/Vimentin High/Low", "value": 2.66, "unit": "Months"}, {"measurement": "Median PFS", "setting": "E-Cadherin/Vimentin Low/High", "value": 3.61, "unit": "Months"}, {"measurement": "Median PFS", "setting": "E-Cadherin/Vimentin Low/Low", "value": 1.69, "unit": "Months"}, {"measurement": "Median PFS", "setting": "Patients with Known E-Cadherin Results", "value": 2.38, "unit": "Months"}, {"measurement": "Median PFS", "setting": "Patients with Known Vimentin Results", "value": 2.38, "unit": "Months"}, {"measurement": "Median PFS", "setting": "Vimentin High", "value": 5.39, "unit": "Months"}, {"measurement": "Median PFS", "setting": "Vimentin Low", "value": 2.18, "unit": "Months"}, {"measurement": "survival when treated with TARCEVA", "setting": "subset of treated patients with high E-cadherin expression", "value": "longer survival"}, {"measurement": "survival when treated with TARCEVA", "setting": "subset of treated patients with high vimentin expression", "value": "significantly longer survival"}, {"measurement": "Kaplan-Meier overall survival, Erlotinib arm compared to Placebo arm", "setting": "vimentin high subset (FIG. 5)", "value": "more favorable"}, {"measurement": "Kaplan-Meier progression free survival, Erlotinib arm compared to Placebo arm", "setting": "vimentin high subset (FIG. 6)", "value": "more favorable"}, {"measurement": "Kaplan-Meier overall survival, Erlotinib arm compared to Placebo arm", "setting": "vimentin low subset (FIG. 5)", "value": "no difference"}, {"measurement": "Kaplan-Meier progression free survival, Erlotinib arm compared to Placebo arm", "setting": "vimentin low subset (FIG. 6)", "value": "no difference"}]}]}
